From patent US20240245673A1, “Papain-like protease (PLpro) inhibitors” (Pfizer Inc., priority 2022, published 2024)
Like-named read-outs stand apart in the source and are kept apart here.

Biological target: SARS-CoV-2 Papain like protease (PLpro) (Severe acute respiratory syndrome coronavirus 2 (2019-nCoV) (SARS-CoV-2), UniProt P0DTD1)
Test: Papain Like Protease (PLpro) biochemical assay with profluorogenic substrate Z-RLRGG-AMC
Settings: SARS-CoV-2 PLpro 6.25 nM, 25 μM Z-RLRGG-AMC substrate, 60 minute reaction

Compound: Cc1cc(CC(=O)Nc2ncc[nH]2)ccc1C(=O)N[C@H](C)c1cc(-c2cnn(C)c2)nc2ccccc12 [Example 239, (R)-4-(2-((1H-imidazol-2-yl)amino)-2-oxoethyl)-2-methyl-N-(1-(2-(1-methyl-1H-pyrazol-4-yl)quinolin-4-yl)ethyl)benzamide]
- IC50 (read-out: IC50): 0.007 µM

Compound: Cc1ccc(N2CCC3(CCCCN3)C2=O)cc1C(=O)N[C@H](C)c1cc(-c2cnn(C)c2)nc2ccccc12 (stereo partly shown) [Example 240]
- IC50 (read-out: IC50): 0.026 µM

Compound: Cc1cc(C(C)(C)NCc2cscn2)ccc1C(=O)N[C@H](C)c1cc(-c2cnn(C)c2)nc2ccccc12 [Example 241, (R)-2-methyl-N-(1-(2-(1-methyl-1H-pyrazol-4-yl)quinolin-4-yl)ethyl)-4-(2-((thiazol-4-ylmethyl)amino)propan-2-yl)benzamide]
- IC50 (read-out: IC50): 0.007 µM

Compound: Cc1cc(C(=O)NC2(c3ncc[nH]3)CC2)ccc1C(=O)N[C@H](C)c1cc(-c2cnn(C)c2)nc2ccccc12 [Example 242]
- IC50 (read-out: IC50): 0.006 µM

Compound: Cc1cc(C(=O)N(C)Cc2cscn2)ccc1C(=O)N[C@H](C)c1cc(-c2cnn(C)c2)nc2ccccc12 [Example 243]
- IC50 (read-out: IC50): 0.077 µM

Compound: Cc1cc(C(=O)NC(C)(C)c2ncc[nH]2)ccc1C(=O)N[C@H](C)c1cc(-c2cnn(C)c2)nc2ccccc12 [Example 244]
- IC50 (read-out: IC50): 0.167 µM

Compound: Cc1cc(C(=O)NCc2ncc[nH]2)ccc1C(=O)N[C@H](C)c1cc(-c2cnn(C)c2)nc2ccccc12 [Example 245]
- IC50 (read-out: IC50): 0.005 µM

Compound: Cc1cc(C(=O)NC(C)c2ncc[nH]2)ccc1C(=O)N[C@H](C)c1cc(-c2cnn(C)c2)nc2ccccc12 (stereo partly shown) [Example 246]
- IC50 (read-out: IC50): 0.035 µM

Compound: Cc1ccc(N2CCC(N)C2=O)cc1C(=O)N[C@H](C)c1cc(-c2cnn(C)c2)nc2ccccc12 (stereo partly shown) [Example 247]
- IC50 (read-out: IC50): 0.091 µM

Compound: Cc1ccc(N2CCNCC2=O)cc1C(=O)N[C@H](C)c1cc(-c2cnn(C)c2)nc2ccccc12 [Example 248]
- IC50 (read-out: IC50): 0.39 µM

Compound: Cc1ccc(N2CCN(C)CC2=O)cc1C(=O)N[C@H](C)c1cc(-c2cnn(C)c2)nc2ccccc12 [Example 249, (R)-2-methyl-N-(1-(2-(1-methyl-1H-pyrazol-4-yl)quinolin-4-yl)ethyl)-5-(4-methyl-2-oxopiperazin-1-yl)benzamide]
- IC50 (read-out: IC50): 0.733 µM

Compound: CCOC(=O)[C@@H]1O[C@H]1C(=O)NNC(=O)CCc1ccccc1C(=O)N[C@H](C)c1cc(-c2cnn(C)c2)nc2ccccc12 [Example 250, ethyl (2R,3R)-3-(2-(3-(2-(((R)-1-(2-(1-methyl-1H-pyrazol-4-yl)quinolin-4-yl)ethyl)carbamoyl)phenyl)propanoyl)hydrazine-1-carbonyl)oxirane-2-carboxylate]
- IC50 (read-out: IC50): 0.002 µM

Compound: Cc1ccc(N2CC3CC(C2)N3)cc1C(=O)N[C@H](C)c1cc(-c2cnn(C)c2)nc2ccccc12 [Example 251, 5-(3,6-diazabicyclo[3.1.1]heptan-3-yl)-2-methyl-N—((R)-1-(2-(1-methyl-1H-pyrazol-4-yl)quinolin-4-yl)ethyl)benzamide]
- IC50 (IC50 (μM)): 0.005 µM

Compound: Cc1ccc(N2CC3CC(C2)N3C)cc1C(=O)N[C@H](C)c1cc(-c2cnn(C)c2)nc2ccccc12 [Example 252, 2-methyl-N—((R)-1-(2-(1-methyl-1H-pyrazol-4-yl)quinolin-4-yl)ethyl)-5-(6-methyl-3,6-diazabicyclo[3.1.1]heptan-3-yl)benzamide]
- IC50 (IC50 (μM)): 0.005 µM

Compound: Cc1cc(C(=O)NCc2nccn2C)ccc1C(=O)NC1(c2cc(-c3cnn(C)c3)nc3ccccc23)CC1 [Example 253]
- IC50 (read-out: IC50): 0.006 µM

Compound: Cc1cc(C(=O)NCc2cscn2)ccc1C(=O)NC1(c2cc(-c3cnn(C)c3)nc3ccccc23)CC1 [Example 254]
- IC50 (read-out: IC50): 0.005 µM

Compound: Cc1ccc(N2CC3CC2CN3)cc1C(=O)N[C@H](C)c1cc(-c2cnn(C)c2)nc2ccccc12 (stereo partly shown) [Example 255]
- IC50 (read-out: IC50): 0.019 µM

Compound: Cc1ccc(N2CC3CC2CN3C)cc1C(=O)N[C@H](C)c1cc(-c2cnn(C)c2)nc2ccccc12 (stereo partly drawn) [Example 256, 2-methyl-N-((R)-1-(2-(1-methyl-1H-pyrazol-4-yl)quinolin-4-yl)ethyl)-5-(5-methyl-2,5-diazabicyclo[2.2.1]heptan-2-yl)benzamide]
- IC50 (read-out: IC50): 0.015 µM

Compound: CNC(=O)c1cc(-c2cc([C@@H](C)NC(=O)c3cc(CN)ccc3C)c3ccccc3n2)cn1C [Example 257, (R)-4-(4-(1-(5-(aminomethyl)-2-methylbenzamido)ethyl)quinolin-2-yl)-N,1-dimethyl-1H-pyrrole-2-carboxamide]
- IC50 (read-out: IC50): 0.022 µM

Compound: Cc1ccc(CN)cc1C(=O)N[C@H](C)c1cc(-c2cc(C(=O)N(C)C)n(C)c2)nc2ccccc12 [Example 258, (R)-4-(4-(1-(5-(aminomethyl)-2-methylbenzamido)ethyl)quinolin-2-yl)-N,N,1-trimethyl-1H-pyrrole-2-carboxamide]
- IC50 (read-out: IC50): 0.044 µM

Compound: CNC(=O)Cc1ccc(C(=O)N[C@H](C)c2cc(-c3cnn(C)c3)nc3ccccc23)c(C)c1 [Example 259, (R)-2-methyl-N-(1-(2-(1-methyl-1H-pyrazol-4-yl)quinolin-4-yl)ethyl)-4-(2-(methylamino)-2-oxoethyl)benzamide]
- IC50 (read-out: IC50): 0.147 µM

Compound: Cc1cc(CC(=O)N(C)C)ccc1C(=O)N[C@H](C)c1cc(-c2cnn(C)c2)nc2ccccc12 [Example 260, (R)-4-(2-(dimethylamino)-2-oxoethyl)-2-methyl-N-(1-(2-(1-methyl-1H-pyrazol-4-yl)quinolin-4-yl)ethyl)benzamide]
- IC50 (read-out: IC50): 0.244 µM

Compound: Cc1ccc(N2CC3CNCC3C2)cc1C(=O)N[C@H](C)c1cc(-c2cnn(C)c2)nc2ccccc12 (stereo partly shown) [Example 261]
- IC50 (read-out: IC50): 0.021 µM

Compound: Cc1ccc(N2CC3CN(C)CC3C2)cc1C(=O)N[C@H](C)c1cc(-c2cnn(C)c2)nc2ccccc12 (stereo partly drawn) [Example 262, 2-methyl-N-((R)-1-(2-(1-methyl-1H-pyrazol-4-yl)quinolin-4-yl)ethyl)-5-(5-methylhexahydropyrrolo[3,4-c]pyrrol-2(1H)-yl)benzamide]
- IC50 (read-out: IC50): 0.008 µM

Compound: COC(=O)c1cc(-c2cc([C@@H](C)NC(=O)c3cc(CN)ccc3C)c3ccccc3n2)n(C)c1 [Example 263, methyl(R)-5-(4-(1-(5-(aminomethyl)-2-methylbenzamido)ethyl)quinolin-2-yl)-1-methyl-1H-pyrrole-3-carboxylate]
- IC50 (read-out: IC50): 0.231 µM

Compound: Cc1cc(CN(C)C(=O)c2cscn2)ccc1C(=O)N[C@H](C)c1cc(-c2cnn(C)c2)nc2ccccc12 [Example 264, (R)-N-methyl-N-(3-methyl-4-((1-(2-(1-methyl-1H-pyrazol-4-yl)quinolin-4-yl)ethyl)carbamoyl)benzyl)thiazole-4-carboxamide]
- IC50 (read-out: IC50): 0.022 µM

Compound: Cc1cc(CN(C)C(=O)c2ncc[nH]2)ccc1C(=O)N[C@H](C)c1cc(-c2cnn(C)c2)nc2ccccc12 [Example 265, (R)-N-methyl-N-(3-methyl-4-((1-(2-(1-methyl-1H-pyrazol-4-yl)quinolin-4-yl)ethyl)carbamoyl)benzyl)-1H-imidazole-2-carboxamide]
- IC50 (read-out: IC50): 0.14 µM

Compound: Cc1cc(CN(C)Cc2cscn2)ccc1C(=O)N[C@H](C)c1cc(-c2cnn(C)c2)nc2ccccc12 [Example 266, (R)-2-methyl-4-((methyl(thiazol-4-ylmethyl)amino)methyl)-N-(1-(2-(1-methyl-1H-pyrazol-4-yl)quinolin-4-yl)ethyl)benzamide]
- IC50 (read-out: IC50): 0.024 µM

Compound: CC(=O)N(Cc1ccc(C(=O)N[C@H](C)c2cc(-c3cnn(C)c3)nc3ccccc23)c(C)c1)Cc1cscn1 [Example 267, (R)-2-methyl-N-(1-(2-(1-methyl-1H-pyrazol-4-yl)quinolin-4-yl)ethyl)-4-((N-(thiazol-4-ylmethyl)acetamido)methyl)benzamide]
- IC50 (read-out: IC50): 0.21 µM

Compound: Cc1cc(CN(Cc2cscn2)S(C)(=O)=O)ccc1C(=O)N[C@H](C)c1cc(-c2cnn(C)c2)nc2ccccc12 [Example 268, (R)-2-methyl-N-(1-(2-(1-methyl-1H-pyrazol-4-yl)quinolin-4-yl)ethyl)-4-((N-(thiazol-4-ylmethyl)methylsulfonamido)methyl)benzamide]
- IC50 (read-out: IC50): 0.139 µM

Compound: Cc1cc(C(C)NC(=O)c2cscn2)ccc1C(=O)N[C@H](C)c1cc(-c2cnn(C)c2)nc2ccccc12 (stereo partly drawn) [Example 269, N-(1-(3-methyl-4-(((R)-1-(2-(1-methyl-1H-pyrazol-4-yl)quinolin-4-yl)ethyl)carbamoyl)phenyl)ethyl)thiazole-4-carboxamide]
- IC50 (read-out: IC50): 0.041 µM

Compound: Cc1cc(C(C)NC(=O)c2ncc[nH]2)ccc1C(=O)N[C@H](C)c1cc(-c2cnn(C)c2)nc2ccccc12 (stereo partly drawn) [Example 270, N-(1-(3-methyl-4-(((R)-1-(2-(1-methyl-1H-pyrazol-4-yl)quinolin-4-yl)ethyl)carbamoyl)phenyl)ethyl)-1H-imidazole-2-carboxamide]
- IC50 (read-out: IC50): 0.037 µM

Compound: Cc1cc(C(=O)NCc2nccn2C)ccc1C(=O)N[C@H](C)c1cc(-c2cnn(C)c2)nc2ccccc12 [Example 271]
- IC50 (read-out: IC50): 0.005 µM

Compound: Cc1cc(COCc2cscn2)ccc1C(=O)N[C@H](C)c1cc(-c2cnn(C)c2)nc2ccccc12 [Example 274, (R)-2-methyl-N-(1-(2-(1-methyl-1H-pyrazol-4-yl)quinolin-4-yl)ethyl)-4-((thiazol-4-ylmethoxy)methyl)benzamide]
- IC50 (IC50 (μM)): 0.002 µM

Compound: Cc1ccc(N2CCNCC2)cc1C(=O)NC1(c2cc(-c3ccc(C(=O)N(C)C)[nH]3)cc3ccccc23)CC1 [Example 276, N,N-dimethyl-5-(4-(1-(2-methyl-5-(piperazin-1-yl)benzamido)cyclopropyl)naphthalen-2-yl)-1H-pyrrole-2-carboxamide]
- IC50 (read-out: IC50): 0.003 µM

Compound: Cc1ccc(N2CCN(C)CC2)cc1C(=O)NC1(c2cc(-c3cc(C(=O)N(C)C)c[nH]3)cc3ccccc23)CC1 [Example 277, N,N-dimethyl-5-(4-(1-(2-methyl-5-(4-methylpiperazin-1-yl)benzamido)cyclopropyl)naphthalen-2-yl)-1H-pyrrole-3-carboxamide]
- IC50 (read-out: IC50): 0.002 µM

Compound: Cc1cc(CSCc2nccn2C)ccc1C(=O)N[C@H](C)c1cc(-c2cnn(C)c2)nc2ccccc12 [Example 282, (R)-2-methyl-4-((((1-methyl-1H-imidazol-2-yl)methyl)thio)methyl)-N-(1-(2-(1-methyl-1H-pyrazol-4-yl)quinolin-4-yl)ethyl)benzamide]
- IC50 (read-out: IC50): 0.006 µM
